Consider 18 compounds from patent US9096624B2 (OSI Pharmaceuticals, LLC, priority 2009, dated 2015).

Structures are written as SMILES. Where a name gives a salt, the structure may show the parent alone.

The target in this test is FAK (Homo sapiens, UniProt Q05397). The test can be described thus: biochemical.
Sequence of FAK (Q05397 whole entry): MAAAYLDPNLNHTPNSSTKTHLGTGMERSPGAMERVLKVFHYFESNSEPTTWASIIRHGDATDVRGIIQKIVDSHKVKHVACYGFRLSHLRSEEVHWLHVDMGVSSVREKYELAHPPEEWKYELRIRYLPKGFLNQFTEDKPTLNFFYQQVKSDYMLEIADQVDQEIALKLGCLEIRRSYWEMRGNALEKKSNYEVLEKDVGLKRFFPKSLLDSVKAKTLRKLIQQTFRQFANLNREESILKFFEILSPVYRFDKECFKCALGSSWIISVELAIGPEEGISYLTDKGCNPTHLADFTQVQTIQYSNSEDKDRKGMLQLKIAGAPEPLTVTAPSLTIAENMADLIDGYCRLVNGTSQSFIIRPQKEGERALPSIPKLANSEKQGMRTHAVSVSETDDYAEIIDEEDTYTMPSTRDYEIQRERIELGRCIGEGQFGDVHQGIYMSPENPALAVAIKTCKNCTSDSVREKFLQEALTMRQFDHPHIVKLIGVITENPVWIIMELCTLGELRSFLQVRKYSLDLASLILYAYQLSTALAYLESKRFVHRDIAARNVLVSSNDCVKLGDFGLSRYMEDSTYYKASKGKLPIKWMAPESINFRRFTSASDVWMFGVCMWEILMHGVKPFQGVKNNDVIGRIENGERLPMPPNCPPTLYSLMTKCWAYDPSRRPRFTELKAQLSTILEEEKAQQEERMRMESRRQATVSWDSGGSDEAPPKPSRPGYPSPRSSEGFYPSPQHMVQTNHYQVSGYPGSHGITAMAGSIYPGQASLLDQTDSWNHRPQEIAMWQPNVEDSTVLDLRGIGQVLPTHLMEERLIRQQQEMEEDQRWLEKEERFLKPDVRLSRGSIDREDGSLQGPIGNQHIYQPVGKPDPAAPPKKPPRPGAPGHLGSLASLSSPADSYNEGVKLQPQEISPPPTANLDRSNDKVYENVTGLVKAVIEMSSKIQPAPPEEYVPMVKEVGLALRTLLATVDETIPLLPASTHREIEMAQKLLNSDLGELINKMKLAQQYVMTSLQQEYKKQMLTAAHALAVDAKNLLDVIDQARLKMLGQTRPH
The IC50 is the concentration that gives 50% inhibition. `CCOP(=O)(O)C1CCC(c2ccc(Nc3nc(Nc4ccccc4OC)ncc3C(F)(F)F)c3c2CN(C)C3=O)CC1` (mixture of isomers) [Example 255, Ethyl hydrogen {4-[7-({2-[(2-methoxyphenyl)amino]-5-(trifluoromethyl)pyrimidin-4-yl}amino)-2-methyl-1-oxo-2,3-dihydro-1H-isoindol-4-yl]cyclohexyl}phosphonate trifluoroacetate]: the IC50 is below 1000 nM. The compound `CCOP(=O)(Cc1ccc(Nc2ncc(C(F)(F)F)c(Nc3ccc([C@H]4CC[C@@H](C(=O)O)CC4)c4c3C(=O)N(C)C4)n2)c(OC)c1)OCC` [Example 89, Cis-4-(7-{[2-({4-[(diethoxyphosphoryl)methyl]-2-methoxyphenyl}amino)-5-(trifluoromethyl)pyrimidin-4-yl]amino}-2-methyl-1-oxo-2,3-dihydro-1H-isoindol-4-yl)cyclohexanecarboxylic acid] gave an IC50 below 1000 nM.

Take `CCOP(=O)(Cc1ccc(Nc2ncc(C(F)(F)F)c(Nc3ccc([C@H]4CC[C@H](O)CC4)c4c3C(=O)N(C)C4)n2)cc1)OCC` [Example 91, Diethyl (4-{[4-{[7-(trans-4-hydroxycyclohexyl)-2-methyl-3-oxo-2,3-dihydro-1H-isoindol-4-yl]amino}-5-(trifluoromethyl)pyrimidin-2-yl]amino}benzyl)phosphonate]: the IC50 is below 1000 nM.

For the compound `CCOP(=O)(Cc1ccc(Nc2ncc(C(F)(F)F)c(Nc3ccc([C@H]4CC[C@H](O)CC4)c4c3C(=O)N(C)C4)n2)c(OC)c1)OCC` [Example 93, Diethyl (4-{[4-{[7-(trans-4-hydroxycyclohexyl)-2-methyl-3-oxo-2,3-dihydro-1H-isoindol-4-yl]amino}-5-(trifluoromethyl)pyrimidin-2-yl]amino}-3-methoxybenzyl) phosphonate hydrochloride], the IC50 is below 1000 nM. The compound `CCOP(=O)(Cc1ccc(Nc2ncc(C(F)(F)F)c(Nc3ccc([C@H]4CC[C@@H](N5CCN(C)CC5)CC4)c4c3C(=O)N(C)C4)n2)c(OC)c1)OCC` [Example 95, Diethyl (3-methoxy-4-{[4-({2-methyl-7-[cis-4-(4-methylpiperazin-1-yl)cyclohexyl]-3-oxo-2,3-dihydro-1H-isoindol-4-yl}amino)-5-(trifluoromethyl)pyrimidin-2-yl]amino}benzyl)phosphonate] yielded an IC50 below 1000 nM. Then `CCOP(=O)(Cc1ccc(Nc2ncc(C(F)(F)F)c(Nc3ccc(-c4cnn(CCOC)c4)c4c3C(=O)N(C)C4)n2)cc1)OCC` [Example 97, Diethyl (4-{[4-({7-[1-(2-methoxyethyl)-1H-pyrazol-4-yl]-2-methyl-3-oxo-2,3-dihydro-1H-isoindol-4-yl}amino)-5-(trifluoromethyl)pyrimidin-2-yl]amino}benzyl)phosphonate], with below 1000 nM. `CCOP(=O)(Cc1ccc(Nc2ncc(C(F)(F)F)c(Nc3ccc(Br)cc3C(=O)NC)n2)cc1)OCC` [Example 106, Diethyl (4-{[4-{[4-bromo-2-(methylcarbamoyl)phenyl]amino}-5-(trifluoromethyl)pyrimidin-2-yl]amino}benzyl)phosphonate] yielded an IC50 below 1000 nM. To `CCOP(=O)(Cc1ccc(Nc2ncc(C(F)(F)F)c(Nc3ccccc3C(=O)NC)n2)c(Br)c1)OCC` [Example 108, Diethyl (3-bromo-4-{[4-{[2-(methylcarbamoyl)phenyl]amino}-5-(trifluoromethyl)pyrimidin-2-yl]amino}benzyl) phosphonate] belongs below 1000 nM; to `CCOP(=O)(Cc1ccc(Nc2ncc(C(F)(F)F)c(Nc3ccccc3C(=O)N(C)C)n2)cc1)OCC` [Example 111, Diethyl (4-{[4-{[2-(dimethylcarbamoyl)phenyl]amino}-5-(trifluoromethyl)pyrimidin-2-yl]amino}benzyl)phosphonate], below 1000 nM. Then `CCOP(=O)(Cc1ccc(Nc2ncc(C(F)(F)F)c(Nc3ccccc3C(=O)N(C)C)n2)c(OC)c1)OCC` [Example 112, Diethyl (4-{[4-{[2-(dimethylcarbamoyl)phenyl]amino}-5-(trifluoromethyl)pyrimidin-2-yl]amino}-3-methoxybenzyl)phosphonate], with below 1000 nM; and `CCOP(=O)(Cc1ccc(Nc2ncc(C(F)(F)F)c(Nc3ccc(C(=O)OC)c4c3C(=O)N(C)C4)n2)cc1)OCC` [Example 118, Methyl 7-{[2-({4-[(diethoxyphosphoryl)methyl]phenyl}amino)-5-(trifluoromethyl)pyrimidin-4-yl]amino}-2-methyl-1-oxo-2,3-dihydro-1H-isoindole-4-carboxylate], with below 1000 nM.

For `CCOP(=O)(O)Cc1ccc(Nc2ncc(C(F)(F)F)c(Nc3cccc4c3C(=O)N(C)C4)n2)c(OC)c1` [Example 120, Ethyl hydrogen [3-methoxy-4-({4-[(2-methyl-3-oxo-2,3-dihydro-1H-isoindol-4-yl)amino]-5-(trifluoromethyl)pyrimidin-2-yl}amino)benzyl]phosphonate], the 50% inhibitory concentration (IC50) is below 1000 nM.

As for `CCOP(=O)(Cc1ccc(Nc2ncc(C(F)(F)F)c(Nc3ccc(N4CCN5CCOCC5C4)c4c3C(=O)N(C)C4)n2)cc1)OCC` (stereo not drawn) [Example 121, Diethyl (4-{[4-{[7-(hexahydropyrazino[2,1-c][1,4]oxazin-8(1H)-yl)-2-methyl-3-oxo-2,3-dihydro-1H-isoindol-4-yl]amino}-5-(trifluoromethyl)pyrimidin-2-yl]amino}benzyl)phosphonate], the IC50 is below 1000 nM.

In turn, `CCOP(=O)(Cc1ccc(Nc2ncc(C(F)(F)F)c(Nc3ccc(N4CCN5CCOCC5C4)c4c3C(=O)N(C)C4)n2)c(OC)c1)OCC` (stereo not drawn) [Example 122, Diethyl (4-{[4-{[7-(hexahydropyrazino[2,1-c][1,4]oxazin-8(1H)-yl)-2-methyl-3-oxo-2,3-dihydro-1H-isoindol-4-yl]amino}-5-(trifluoromethyl)pyrimidin-2-yl]amino}-3-methoxybenzyl)phosphonate] came in with an IC50 below 1000 nM. On to `CCOP(=O)(Cc1ccc(Nc2ncc(C(F)(F)F)c(Nc3ccc(Br)c4ccn(C)c(=O)c34)n2)cc1)OCC` [Example 123, Diethyl [4-({4-[(5-bromo-2-methyl-1-oxo-1,2-dihydroisoquinolin-8-yl)amino]-5-(trifluoromethyl)pyrimidin-2-yl}amino)benzyl]phosphonate], for which the IC50 is below 1000 nM. To `CCCn1cc(-c2ccc(Nc3nc(Nc4ccc(CP(=O)(OCC)OCC)cc4)ncc3C(F)(F)F)c(C(=O)NC)c2)cn1` [Example 126, Diethyl (4-{[4-{[2-(methylcarbamoyl)-4-(1-propyl-1H-pyrazol-4-yl)phenyl]amino}-5-(trifluoromethyl)pyrimidin-2-yl]amino}benzyl)phosphonate] belongs below 1000 nM; to `CCOP(=O)(Cc1ccc(Nc2ncc(C(F)(F)F)c(Nc3ccc(-c4cnn(CC(C)(C)O)c4)cc3C(=O)NC)n2)cc1)OCC` [Example 127], below 1000 nM; to `CCOP(=O)(Cc1cc(OC)c(Nc2ncc(C(F)(F)F)c(Nc3ccccc3C(=O)NC)n2)cc1F)OCC` [Example 130, Diethyl (2-fluoro-5-methoxy-4-{[4-{[2-(methylcarbamoyl)phenyl]amino}-5-(trifluoromethyl)pyrimidin-2-yl]amino}benzyl)phosphonate], below 1000 nM.
